# Where a SMILES comes first, the peptide text is derived from it. Bridges are numbered along the chain shown (N, C = ends). Roman numbers before positions name the chains, in order. Where no end group is shown, it is not given here. The star is where a group is joined. FITC = O=C1OC2(c3ccc(O)cc3Oc3cc(O)ccc32)c2ccc(NC(=S)*)cc21; 5FAM = O=C1OC2(c3ccc(O)cc3Oc3cc(O)ccc32)c2ccc(C(=O)*)cc21
# Key:
# [1] = Stability of peptides in mice serum (HPLC of remaining peptide, t1/2 by CompuSyn); format: in vitro ADME; settings: for Fold increase (of t1/2 compared with CPPecp): t1/2 of CPPecp set as one-fold; for half-life: mouse
# Experimental: FIG. 1 illustrates the stability of CPPecp in mice serum. CPPecp was dissolved in 1× PBS (4 mg/ml) and incubated with equal volume of mice serum (final 50%) for different time points (0, 2, 5, 15, 30, 60 min, respectively). The reaction was terminated by the addition of an equal volume of TCA solution (final 50%) and denatured serum proteins were removed by centrifugation. The supernatant was then assayed by HPLC to quantify the remaining CPPecp. Zero time point was set as 100 percent of remaining CPPecp and relative amounts of CPPecp in each time point were calculated. Data represent the mean±SD (standard deviation) of three independent experiments. The t1/2 of CPPecp was calculated by CompuSyn.
# FIG. 2 illustrates comparison of stabilities between CPPecp and N-terminal FITC-conjugated CPPecp in mice serum. Both were dissolved in dH2O (0.5 mg/ml) and incubated with equal volume of 20% mice serum (final 10%) for different time points (0, 2, 5, 15, 30, 60 min, respectively). The reactions were terminated by the addition of an equal volume of TCA solution (final 50%) and denatured serum proteins were removed by centrifugation. The supernatants were assayed by HPLC to quantify the remaining peptides. Zero time point was set as 100 percent of remaining peptides and relative amounts of peptides in each time point were calculated. The t1/2, of CPPecp and N-terminal FITC-CPPecp were calculated by CompuSyn.
# FIG. 3 illustrates stabilities of N-terminal (5-FAM)-CPPecp-CPPecp (A) and N-terminal Ac-CPPecp (B) in mice serum. Both modified peptides were dissolved in dH2O (0.5 mg/ml) and incubated with equal volume of 20% mice serum (final 10%) for different time points (0-24 hours for (5-FAM)-CPPecp-CPPecp and 0-60 min for Ac-CPPecp, respectively). The reactions were terminated by the addition of an equal volume of TCA solution (final 50%) and denatured serum proteins were removed by centrifugation. The supernatants were assayed by HPLC to quantify the remaining peptides. Zero time point was set as 100 percent of remaining peptides and relative amounts of peptides in each time point were calculated. The t1/2 of N-terminal (5-FAM)-CPPecp-CPPecp and N-terminal Ac-CPPecp were calculated by CompuSyn.
# FIG. 5 illustrates comparison of stabilities between CPPecp (A) and CPPecp-dimer (B) in mice serum. Both peptides were dissolved in 1× PBS (4 mg/ml) and incubated with equal volume of mice serum (final 50%) for different time points (0-60 min for CPPecp and 0-48 hours for CPPecp-dimer, respectively). The reactions were terminated by the addition of an equal volume of TCA solution (final 50%) and denatured serum proteins were removed by centrifugation. The supernatants were assayed by HPLC to quantify the remaining peptides. Zero time point was set as 100 percent of remaining peptides and relative amounts of peptides in each time point were calculated. Data represent the mean±SD (standard deviation) of three independent experiments. The t1/2, of CPPecp and CPPecp-dimer were calculated by CompuSyn.
# The unmodified CPPecp (NH2-NYRWRCKNQN-COOH (SEQ. ID NO:2)) was synthesized by MISSION BIOTECH Inc. in TAIWAN. To determine the stability of unmodified CPPecp in mice serum, 100 μl of CPPecp (0.5 mg/ml or 4 mg/ml) was mixed with equal volume of whole mice serum (strain: CD-1 (ICR), final 50%) and incubated at room temperature for 0, 2, 5, 15, 30 and 60 min. The reaction was stopped by adding 200 μl of 100% TCA solution and vortexed for 5 seconds to precipitate serum proteins. Denatured serum proteins were removed by centrifugation at 18000 x g, 4° C. for 2 mins. The supernatants were analyzed by HPLC (column: Purospher® STAR RP-18e, eluent A: 0.1% TFA in dH2O, eluent B: 0.1% TFA in acetonitrile, flow rate: 1ml/min, gradient: 2-35% of eluent B in 15 min, UV wavelength: 280 nm). Zero-time point was set as one hundred percent of remaining CPPecp and relative amount of CPPecp in each time point were calculated. The t1/2 of CPPecp was calculated by CompuSyn (ver. 1.0). […]
# NCI-H460 cells = experiment: Heparan sulfate binding assay on cells (fluorescence spectrophotometer); format: cell-based; settings: NCI-H460 cells pre-incubated with heparanase 5 U/ml, 37° C., 2 hours
# Experimental: FIG. 7 illustrates binding specificity of CPPecp and CPPecp-dimer on NCI-H460 cells. Before treatment, each well (96-well plate) was blocked by 2% of BSA at 4° C. for 1 hour, and washed with PBS once. After blocking, NCI-H460 cells were incubated with 0.625, 1.25 and 2.5 μM of FITC-CPPecp and FITC-CPPecp dimer at 4° C. for 1 hour. After washing with PBS, the binding of FITC-CPPecp and FITC-CPPecp dimer were measured by fluorescence spectrophotometer (A). To test binding specificity, cells were incubated with heparanase (5 U/ml) at 37° C. for 2 hours before peptide incubation (B and C). Total peptide inputs (binding and washout) were set as 100 percent and the relative binding of FITC-CPPecp and FITC-CPPecp dimer were calculated. The data represented the means of triplicate incubations. […]
# In order to certify if the specific binding affinity to heparan sulfate of disulfide linked CPPecp-dimer is still maintained as original CPPecp, the heparan sulfate binding affinity was investigated by FITC-conjugated CPPecp monomer and dimer, and measured by fluorescence spectrophotometer. […] After rinse, each well was refilled with 100 μl of 1× PBS and the fluorescence intensity was measured by fluorescence spectrophotometer (excitation: 485 nm; emission: 521 nm) as binding partition. Unbound and rinsed out peptides were obtained by adding up the fluorescence intensity of culture medium and buffer. […]
# [2] = system: lung cancer cell lines: A549, NCI-H460 and NCI-H441; experiment: Toxicity in lung cancer cell lines (cell viability, MTS assay); format: cell-based; settings: 0.3-30 μM, 72 hours
# Experimental: FIG. 8 illustrates toxicities of CPPecp and CPPecp-dimer in different lung cancer cell lines. Cells were incubated with CPPecp and CPPecp-dimer in different concentrations (0, 0.3, 1, 3, 10 and 30 μM) at 37° C. for 72 hours. Cell viabilities were measured by MTS assay. The 0 μM of CPPecp (vehicle control) was set as 100 percent and the relative viabilities in each concentration were calculated.
# In order to investigate the application potential of CPPecp-dimer as a drug carrier, the toxicity of CPPecp-dimer was tested and CPPecp monomer was compared in three lung cancer cell lines: A549, NCI-H460 and NCI-H441. Lung cancer cell lines were seeded in 96-well plates (2*10^3/well) and incubated overnight. After adhesion, cells were incubated with different concentrations of CPPecp and CPPecp dimer (0, 0.3, 1, 3, 10 and 30 μM) for 72 hours. Cell viabilities were determined by MST assay (Promega Corp.). The cells without treatment were set as control and 100 percent and the relative viabilities in each concentration were calculated.
# [3] = mice serum, final 10%, peptide 0.5 mg/ml in dH2O
# [4] = mice serum (CD-1 (ICR)), final 50%, room temperature
Compound,"stability compared with unmodified CPPecp (in words) ([1]; mice serum, final 10%)",Fold increase (of t1/2 compared with CPPecp) ([1]; mice serum),"half-life [1, 3] [min]",binding percentage after heparanase treatment (NCI-H460 cells),"increase of the stability of CPPecp ([1]; mice serum, final 50%)","half-life [1, 4] [min]",effect on cell viabilities [2]
N=C(N)NCCC[C@H](NC(=O)[C@H](Cc1c[nH]c2ccccc12)NC(=O)[C@H](CCCNC(=N)N)NC(=O)[C@H](Cc1ccc(O)cc1)NC(=O)[C@H](CC(N)=O)NC(=S)Nc1ccc2c(c1)C(=O)OC21c2ccc(O)cc2Oc2cc(O)ccc21)C(=O)N[C@@H](CS)C(=O)N[C@@H](CCCCN)C(=O)N[C@@H](CC(N)=O)C(=O)N[C@@H](CCC(N)=O)C(=O)N[C@@H](CC(N)=O)C(=O)O [FITC-CPPecp] ({FITC}-NYRWRCKNQN-OH; C-terminus assumed),not improved,+40%,3.28,decreased binding percentage,–,–,–
N=C(N)NCCC[C@H](NC(=O)[C@H](Cc1ccc(O)cc1)NC(=O)[C@H](CC(N)=O)NC(=O)c1ccc2c(c1)C(=O)OC21c2ccc(O)cc2Oc2cc(O)ccc21)C(=O)N[C@@H](Cc1c[nH]c2ccccc12)C(=O)N[C@@H](CCCNC(=N)N)C(=O)N[C@@H](CS)C(=O)N[C@@H](CCCCN)C(=O)N[C@@H](CC(N)=O)C(=O)N[C@@H](CCC(N)=O)C(=O)N[C@@H](CC(N)=O)C(=O)N[C@@H](CC(N)=O)C(=O)N[C@@H](Cc1ccc(O)cc1)C(=O)N[C@@H](CCCNC(=N)N)C(=O)N[C@@H](Cc1c[nH]c2ccccc12)C(=O)N[C@@H](CCCNC(=N)N)C(=O)N[C@@H](CS)C(=O)N[C@@H](CCCCN)C(=O)N[C@@H](CC(N)=O)C(=O)N[C@@H](CCC(N)=O)C(=O)N[C@@H](CC(N)=O)C(=O)O [(5-FAM)-CPPecp-CPPecp] (5FAM-NYRWRCKNQNNYRWRCKNQN-OH; N-terminus and C-terminus assumed),prolonged its stability from 2 to 24 hours,+720%,19.2,–,–,–,–
N=C(N)NCCC[C@H](NC(=O)[C@H](Cc1c[nH]c2ccccc12)NC(=O)[C@H](CCCNC(=N)N)NC(=O)[C@H](Cc1ccc(O)cc1)NC(=O)[C@@H](N)CC(N)=O)C(=O)N[C@@H](CSSC[C@H](NC(=O)[C@H](CCCNC(=N)N)NC(=O)[C@H](Cc1c[nH]c2ccccc12)NC(=O)[C@H](CCCNC(=N)N)NC(=O)[C@H](Cc1ccc(O)cc1)NC(=O)[C@@H](N)CC(N)=O)C(=O)N[C@@H](CCCCN)C(=O)N[C@@H](CC(N)=O)C(=O)N[C@@H](CCC(N)=O)C(=O)N[C@@H](CC(N)=O)C(=O)O)C(=O)N[C@@H](CCCCN)C(=O)N[C@@H](CC(N)=O)C(=O)N[C@@H](CCC(N)=O)C(=O)N[C@@H](CC(N)=O)C(=O)O [CPPecp-dimer] (I: H-NYRWRCKNQN-OH / II: H-NYRWRCKNQN-OH; disulfide I:6-II:6),–,+17900%,–,–,up to 180 fold,420,no inhibitory effect
"H-NYRWRCKNQN-OH [CPPecp, NH2-NYRWRCKNQN-COOH (SEQ. ID NO:2), reference compound]",–,0%,–,–,–,2.34,no inhibitory effect
Ac-NYRWRCKNQN [Ac-CPPecp],–,−24%,1.79,–,–,–,–

# Reference: US10526369B2, “Oxidative modification improves the drugability of cell penetrating peptides as drug carriers” (JOWIN BIOPHARMA, priority 2016, dated 2020)
